Measurements: US10945931B2, “Shaping keratin fibres using dialdehyde compounds” (The Procter & Gamble Company, priority 2015, dated 2021)

Test: Hair straightening efficacy on hair switches, expert grading after wash-and-dry cycles
Conditions: 10% treatment, QSP water buffered at pH 10; flat iron 232° C., 8 passes; after 10 wash cycles; 0-10 scale (0 curly, 10 very straight)
Experimental: The hair straightening efficacy is tested for the crosslinking compositions described herein. Switches of low lift naturally curly hair are employed. These are shampooed with a Pantene clarifying shampoo to ensure the hair is in a clean state with no residues that could affect the end result. The switches are then rinsed. Excess water is removed from the hair by wringing out the switches. The switches are treated with a crosslinking composition; QSP water buffered at pH 10. These ingredients are mixed on a spinner plate for 30 mins. 0.5 g of crosslinking composition per 1 g hair is employed. The crosslinking composition is left on the hair for 30 minutes. After this time, the hair is blow dried and brushed. The switches are then mechanically straightened with a flat iron (at 450° F. [232° C.] with 8 passes.
The switches are then imaged. To simulate durability, the switches are then given one wash-and-dry cycle. One wash-and-dry cycle involves shampooing with a Hairtrition shampoo (Hairtrition Color Protect sulfate-free shampoo from Zotos), rinsing and then drying in a hot box. Once dry the switches are imaged again. The switches are then given 9 further wash-and-dry cycles. Once dry the switches are imaged again. An expert grader gives the images of the switches a score on a 0-10 scale. The scale is a standard scale set as curly hair having 4-5 nodes of curls is a score of 0 and very straight hair is a 10. Thus, the switches are compared to a normal state of hair. Using an expert grader is reliable because the grader is trained on measuring/scaling the configuration of the hair from straight to curly in a consistent way. Numeric data obtained by this method is averaged, and statistical analysis is conducted using JMP statistical software available from the SAS Institute at the […] confidence level. […] However, given similar straightening efficacy the dialdehyde compounds described herein have advantages over glutaraldehyde due to the lower cost of materials and increased safety profile.

Row | Structure (SMILES) | Straightening efficacy Mean grade
1 | O=CCCCC=O [Glutaraldehyde, glutaraldehyde] | 5.00
2 | O=CC(O)CO (stereo not drawn) [Glyceraldehyde] | 2.67
3 | O=CC(O)C(O)C(O)C=O (stereo not drawn) [Pentodialdose, pentodialdose] | 5.33
